Measured values: the supplement of paper PMC10307832

Legend:
Test in all cases: relative viability (nuclei count vs DMSO), 5 days (fraction); higher = more cells survive
[1] = compound: C1COCCN1CC2=CC(=O)C(=CO2)OCCCCCSC3=C4C=CC(=CC4=NC=C3)C(F)(F)F [EHT 1864] + CC(C)C[C@H](NC(=O)[C@H](Cc1ccccc1)NC(=O)c1cnccn1)B(O)O [Bortezomib] (partner 0.002 µM)
How it was run: (§1)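 Lung cancer cell lines were seeded in 1536-well plates and dosed by pin tool the next day, with either a single drug or a fixed anchor-drug dose combined with five library-drug doses (not always all listed) spaced in √10 steps. Five days later, one step fixed the cells and stained their nuclei (final 0.05% Triton X-100, 1% formaldehyde, 1 ug/ml Hoechst), and nuclei were counted on 4× images. Relative viability is the nuclei count in treated wells divided by the count in vehicle wells, and each value is the median of duplicate plates.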

[2] = compound: C1COCCN1CC2=CC(=O)C(=CO2)OCCCCCSC3=C4C=CC(=CC4=NC=C3)C(F)(F)F [EHT 1864] + CC1(C)CCC(c2ccc(Cl)cc2)=C(CN2CCN(c3ccc(C(=O)NS(=O)(=O)c4ccc(N[C@H](CCN5CCOCC5)CSc5ccccc5)c(S(=O)(=O)C(F)(F)F)c4)cc3)CC2)C1 [Navitoclax] (partner 0.5 µM)
How it was run: as §1

[3] = compound: C1COCCN1CC2=CC(=O)C(=CO2)OCCCCCSC3=C4C=CC(=CC4=NC=C3)C(F)(F)F [EHT 1864] + CCNC(=O)c1noc(-c2cc(C(C)C)c(O)cc2O)c1-c1ccc(CN2CCOCC2)cc1 [Luminespib] (partner 0.01 µM)
How it was run: as §1

[4] = compound: C1COCCN1CC2=CC(=O)C(=CO2)OCCCCCSC3=C4C=CC(=CC4=NC=C3)C(F)(F)F [EHT 1864] + Cc1nc(Nc2ncc(C(=O)Nc3c(C)cccc3Cl)s2)cc(N2CCN(CCO)CC2)n1 [Dasatinib] (partner 0.075 µM)
How it was run: as §1

Cell Line	relative viability ([1]; first compound 0.04 µM)	relative viability ([1]; first compound 0.1265 µM)	relative viability ([1]; first compound 0.4 µM)	relative viability ([1]; first compound 1.265 µM)	relative viability ([1]; first compound 4 µM)	relative viability ([2]; first compound 0.04 µM)	relative viability ([2]; first compound 0.1265 µM)	relative viability ([2]; first compound 0.4 µM)	relative viability ([2]; first compound 1.265 µM)	relative viability ([2]; first compound 4 µM)	relative viability ([3]; first compound 0.04 µM)	relative viability ([3]; first compound 0.1265 µM)	relative viability ([3]; first compound 0.4 µM)	relative viability ([3]; first compound 1.265 µM)	relative viability ([3]; first compound 4 µM)	relative viability ([4]; first compound 0.04 µM)	relative viability ([4]; first compound 0.1265 µM)	relative viability ([4]; first compound 0.4 µM)	relative viability ([4]; first compound 1.265 µM)	relative viability ([4]; first compound 4 µM)
NCI-H2023	0.911	0.634	0.867	1.04	0.953	0.964	0.978	0.874	0.939	0.841	0.585	0.723	0.704	0.634	0.68	0.568	0.628	0.508	0.517	0.577
NCI-H2085	0.989	0.785	0.962	0.971	0.782	1.03	1.11	1.08	1.13	1.14	0.432	–	0.541	0.415	0.442	0.22	0.239	0.233	0.253	0.305
NCI-H2087	0.629	0.569	0.753	0.739	0.781	0.86	0.894	0.865	0.829	0.743	0.175	–	0.143	0.168	0.135	0.851	–	0.758	0.846	0.825
NCI-H2126	1.16	1.1	1.11	1.09	1	0.92	0.76	0.823	0.853	0.814	0.796	0.902	0.906	0.879	0.866	0.604	0.574	0.649	0.484	0.545
NCI-H2228	0.935	1.13	0.984	0.904	1.11	1.08	0.847	0.755	0.836	0.827	0.143	0.145	0.182	0.193	0.0861	0.485	0.456	0.418	0.448	0.496
NCI-H2347	1.24	–	1.13	0.894	0.995	0.77	0.708	0.812	0.714	0.828	0.859	0.47	0.401	–	0.745	0.358	0.251	0.308	–	0.332
NCI-H2405	1.05	0.945	0.84	0.76	1.02	0.978	0.832	0.965	–	0.725	0.745	0.667	0.703	0.581	0.603	0.205	0.196	0.241	0.227	0.234
NCI-H3122	1.03	0.973	0.96	0.99	0.965	1.06	1.01	0.987	1.06	0.987	0.102	0.0742	0.089	0.101	0.102	0.809	0.285	0.667	0.817	0.885
PC-3 [JPC-3]	0.83	0.737	0.895	0.853	0.763	0.788	0.72	0.849	0.844	0.805	0.742	0.695	0.664	0.673	0.696	1.05	0.901	0.996	1.02	0.896
PC-14	0.977	0.86	0.877	0.837	0.778	1.06	0.957	0.952	1.02	1.06	0.121	–	0.199	0.196	0.143	0.257	0.276	0.279	0.26	0.195
RERF-LC-KJ	1.05	0.948	1.04	0.951	1.15	0.985	0.829	0.823	0.931	0.888	1.34	1.02	1.17	1.29	1.06	0.825	0.793	0.795	0.772	0.682
SK-LU-1	1.22	–	1.37	1.37	1.07	0.867	0.768	0.824	1.01	0.744	0.184	0.181	0.214	0.229	0.219	0.186	0.171	0.174	0.174	0.164
SW 1573	1.09	0.923	1.01	0.975	0.674	0.999	0.978	1.01	0.958	0.725	0.24	0.356	0.31	0.215	0.187	0.516	0.362	0.445	0.538	0.516
UMC-11	0.675	0.521	0.719	0.255	0.547	0.345	0.294	0.27	0.304	0.322	1.03	0.925	–	1.02	1.12	0.462	0.449	–	0.441	0.458
